Consider four molecules from article PMC4281022 (Journal of medicinal chemistry, 2013).

“Also recorded” adds a separate entry of the source.

In one assay the target is CB1 receptor (Mus musculus, UniProt P47746). Briefly: Tetrad test: attenuation of central effects of Δ^9-THC. It counts as in vivo. The following applies: 10 mg/kg oral, ICR mice.
Assay [1] addresses T1, human CB1 (Homo sapiens, UniProt P21554). Briefly: [3H]CP55940 radioligand displacement at CB1, membranes of CHO-K1 cells. Format: binding. The following applies: ratio of Ki values. On the technique in general: Loss of bound radioactivity is the signal in a displacement assay; it reports binding, not function.
For assay [2], the target named is T1, human CB1. As to the kind of experiment: CB1 calcium mobilization assay, antagonist apparent affinity. It counts as cell-based. A general note: Calcium flux is commonly read through the fluorescence of an indicator in the cells.

Chain of CB1 receptor (P47746 whole entry): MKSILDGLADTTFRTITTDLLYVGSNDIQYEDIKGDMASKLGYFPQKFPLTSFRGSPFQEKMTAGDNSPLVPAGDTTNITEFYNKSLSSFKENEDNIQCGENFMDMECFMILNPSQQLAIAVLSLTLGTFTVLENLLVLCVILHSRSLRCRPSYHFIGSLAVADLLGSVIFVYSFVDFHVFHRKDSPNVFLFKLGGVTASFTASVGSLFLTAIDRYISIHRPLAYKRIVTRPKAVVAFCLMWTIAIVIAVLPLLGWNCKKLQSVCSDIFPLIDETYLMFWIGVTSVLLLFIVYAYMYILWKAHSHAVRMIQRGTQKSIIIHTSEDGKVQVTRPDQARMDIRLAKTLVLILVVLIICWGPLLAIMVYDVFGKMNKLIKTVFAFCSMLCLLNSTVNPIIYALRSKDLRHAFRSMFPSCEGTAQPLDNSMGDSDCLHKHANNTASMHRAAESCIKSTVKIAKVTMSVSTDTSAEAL
T1 sequence (P21554 whole entry): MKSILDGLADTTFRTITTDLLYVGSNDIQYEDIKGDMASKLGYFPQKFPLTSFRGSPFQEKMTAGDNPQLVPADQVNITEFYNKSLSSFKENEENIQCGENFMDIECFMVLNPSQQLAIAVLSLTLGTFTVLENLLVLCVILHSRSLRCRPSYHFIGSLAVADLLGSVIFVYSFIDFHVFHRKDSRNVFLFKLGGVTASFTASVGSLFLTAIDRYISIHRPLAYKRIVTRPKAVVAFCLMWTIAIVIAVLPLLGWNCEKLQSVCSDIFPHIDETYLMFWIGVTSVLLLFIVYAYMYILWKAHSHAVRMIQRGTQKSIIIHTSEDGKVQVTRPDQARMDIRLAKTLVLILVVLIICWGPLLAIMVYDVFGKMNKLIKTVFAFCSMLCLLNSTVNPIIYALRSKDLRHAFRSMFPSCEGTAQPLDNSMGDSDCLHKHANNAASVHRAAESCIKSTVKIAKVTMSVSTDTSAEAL

Consider `CCCCC(=O)NC1CCN(c2ncnc3c2nc(-c2ccccc2Cl)n3-c2ccc(Cl)cc2)CC1` [Compound 9, N-{1-[8-(2-Chlorophenyl)-9-(4-chlorophenyl)-9H-purin-6-yl]piperidin-4-yl}pentanamide], for which the “Reversal of the cannabimimetic effects of Δ^9-THC (tetrad)” value on CB1 receptor (30 min before 30 mg/kg i.v. Δ^9-THC) is recorded as “without efficacy; also recorded: did not reverse any of the cannabimimetic effects of Δ^9-THC; also recorded: could not be reversed”. Also, the “Effects in tetrad tests by itself” value on CB1 receptor (in combination with vehicle) was “did not produce any significant effects”. On human CB1 [1], the “Selectivity for CB1 over CB2” value was over 50 fold.
Consider `O=C(CCN1CCCCC1)NC1CCN(c2ncnc3c2nc(-c2ccccc2Cl)n3-c2ccc(Cl)cc2)CC1` [Compound 15, N-{1-[8-(2-Chlorophenyl)-9-(4-chlorophenyl)-9H-purin-6-yl]piperidin-4-yl}-3-(piperidin-1-yl)propanamide], for which, at human CB1 [2], the Kb was found to be 789 nM.
`O=S(=O)(NC1CCN(c2ncnc3c2nc(-c2ccccc2Cl)n3-c2ccc(Cl)cc2)CC1)C(F)(F)F` [Compound 18, N-{1-[8-(2-chlorophenyl)-9-(4-chlorophenyl)-9H-purin-6-yl]piperidin-4-yl,}-1,1,1-trifluoromethanesulfonamide]: at human CB1 [2], the “Activity in the calcium mobilization assay” value was “very active”.
Same read-out and setting: under “N-{1-[8-(2-chlorophenyl)-9-(4-chlorophenyl)-9H-purin-6-yl]piperidin-4-yl}aminosulfonamide [Compound 17]” stands “did not have significant activity”.

In general, Kb refers to the affinity of an antagonist, worked out from how it opposes an agonist.
